These results are taken from patent US10155751B2, “Pyrazolyl-substituted heteroaryls and their use as medicaments” (Boehringer Ingelheim International GmbH, priority 2015, dated 2018).

The structures appear in SMILES notation.

The test system of one data set is human hepatocytes. The experiment in a line: Human hepatocyte stability test. In kind it is in vitro ADME. The following applies: human hepatocyte suspension, percent of hepatic blood flow. On the procedure:
A more comprehensive way to measure the metabolic stability of a compound of the instant invention than microsomal stability (section 5.6) is the human hepatocyte stability test as described below. Herein the metabolic degradation for the compound in question is performed in a human hepatocyte suspension.
Human hepatocytes (typically cryopreserved) are incubated in an appropriate buffer system (e.g. Dulbecco's modified eagle medium plus 3.5 μg glucagon/500 mL, 2.5 mg insulin/500 mL and 3.75 mg/500 mL hydrocortison) containing 5% species serum.
Following a (typically) 30 min preincubation in an incubator (37° C., 10% CO2) 5 μl of the solution of the compound to be tested ([…]; from 2 mM in DMSO stock solution diluted 1:25 with medium) are added into 395 μl hepatocyte suspension (cell density is in the range of 0.25-5 Mio cells/mL, typically 1 Mio cells/mL; the final concentration of the compound in question is […], the final DMSO concentration is 0.05%).
The cells are incubated for six hours (incubator, orbital shaker) and samples (25 μl) are taken at 0, 0.5, 1, 2, 4 and 6 hours. Samples are transferred into acetonitrile and pelleted by centrifugation (5 min). The supernatant is transferred to a new 96-deepwell plate, evaporated under nitrogen and resuspended.
The decline of the compound to be tested is analyzed by HPLC-MS/MS.
CLint is calculated as follows CL_INTRINSIC=Dose/AUC=(C0/CD)/(AUD+clast/k)×1000/60.
C0: initial concentration in the incubation [μM], CD: cell density of vital cells [10^6 cells/mL], AUD: area under the data [μM×h], clast: concentration of last data point [μM], k: slope of the regression line for the compound in question decline [h−1].
The calculated in vitro hepatic intrinsic clearance can be scaled up to the intrinsic in vivo hepatic Clearance and used to predict hepatic in vivo blood clearance (CL) by the use of a liver model (well stirred model). CL_INTRINSIC_INVIVO [ml/min/kg]=(CL_INTRINSIC [μL/min/10^6cells]×hepatocellularity[10^6 cells/g liver]×liver factor [g/kg bodyweight])/1000 CL [ml/min/kg]=CL_INTRINSIC_INVIVO [ml/min/kg]×hepatic blood flow [ml/min/kg]/(CL_INTRINSIC_INVIVO [ml/min/kg]+hepatic blood flow [ml/min/kg]) Qh[%]=CL [ml/min/kg]/hepatic blood flow [ml/min/kg]) […]
Hepatocellularity, human: 120×10^6 cells/g liver
Liver factor, human: 25.7 g/kg bodyweight
Blood flow, human: 21 ml/(min×kg)
A satisfying human hepatocyte stability for a compound in question measured by this assay is represented by a Qh<20% (whereby the stability is better, the lower the Qh-value is).

For data set [1], the target named is Recombinant human FLT3 (amino acids 564-958) (Homo sapiens (Human), UniProt P36888). As to the kind of experiment: FLT3 kinase test (ADP Glo). In kind it is biochemical. The note with it: read-out: FLT3 inhibition IC50-value (chapter 5.4). The protocol:
The activity of the FLT3 kinase protein was determined using the ADP Glo® Luminescence Kinase test (Promega; V9103X). In this homogeneous test the amount of ADP remaining after the kinase reaction is quantified by a luciferin-luciferase reaction using luminescence. The luminescence signal obtained correlates with the amount of ADP still present and thus correlates with the activity of the protein kinase.
The test compounds were dissolved in 100% DMSO at a concentration of 10 mM and diluted in DMSO to a concentration of 5 mM. Serial Dilution is done in 1:10 steps in 100% DMSO. All further dilutions of the substances were carried out with test buffer (50 mM Hepes, pH 7.5, 10 mM MgCl2, 1 mM EGTA, 0.01% Brij35, 0.1% BSA) until a concentration was reached which was 2.5 times above the final test concentration (final concentration of the compounds: 50 μM to 0.005 nM). […] FLT3 enzyme was diluted to 5 nM in the test buffer and 4 μl of this dilution were used in the kinase test (final concentration of FLT3=2 nM in a total volume of 10 μl). After 60 minutes incubation at room temperature 2 μl mixture of 2.5 mg/ml substrate (Poly-Glu/Tyr; Sigma #P0275) and 2.5 mM ultra-pure ATP (Promega #V915B) in test buffer were added to each well and the incubation was continued for a further 90 minutes at room temperature.
Positive controls are the reaction mixtures that contain no test substance; negative controls (blanks) are reaction mixtures that contain no kinase.
After 90 minutes, 10 μl ADP-Glo® solution (ADP-Glo Reagent #V912B Promega) (heated to room temperature) were added to each well and incubation was continued for a further 60. minutes. Then 20 μl Kinase detection mix (Detection Buffer #V913B Promega; Kinase Detection Substrate #V914B Promega) were added and incubated for 40 minutes at room temperature. The plates were read in Envision Luminescence Reader (Perkin-Elmer).
The output file of the reader is a csv file that contains the well number and measured RLU. For data evaluation and calculation, the measurement of the negative control was set as 0% ctrl and the measurement of the positive control was set as 100% ctrl. Based on this values the % value for the measurement of each substance concentration can be calculated using an Assay Explorer software (e.g. Accelrys). Normally, the % ctrl values calculated are between 0% and 100% values but may also occur outside these limits in individual cases based on variability or compound characteristics. The IC50 values were calculated from the % ctrl values using Assay Explorer software. Calculation: [y=(a−d)/(1+(x/c)^b)+d], a=low value, d=high value; x=conc. M; c=IC50 M; b=hill; y=% ctrl.

Chain of Recombinant human FLT3 (amino acids 564-958) (P36888 564-958): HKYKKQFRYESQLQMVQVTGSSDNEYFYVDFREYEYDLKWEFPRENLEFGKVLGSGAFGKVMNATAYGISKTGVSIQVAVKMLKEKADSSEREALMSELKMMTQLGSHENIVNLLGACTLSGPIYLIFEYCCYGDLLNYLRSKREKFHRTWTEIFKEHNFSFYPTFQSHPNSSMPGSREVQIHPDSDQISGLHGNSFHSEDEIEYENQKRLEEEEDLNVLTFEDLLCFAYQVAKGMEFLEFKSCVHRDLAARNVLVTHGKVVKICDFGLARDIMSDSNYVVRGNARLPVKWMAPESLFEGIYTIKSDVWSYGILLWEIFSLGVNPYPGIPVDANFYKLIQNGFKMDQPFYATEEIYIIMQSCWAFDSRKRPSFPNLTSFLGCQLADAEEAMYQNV

What is called IC50 is the concentration at which inhibition is half-maximal. In the case of `C[C@@H](Oc1cc(-c2cnn(C3CCC3)c2)cc2nn(C)c(F)c12)[C@H]1CNC(=O)C1` [Example 1, (R)-4-{(R)-1-[6-(1-Cyclobutyl-1H-pyrazol-4-yl)-3-fluoro-2-methyl-2H-indazol-4-yloxy]-ethyl}-pyrrolidin-2-one], the “stability in human hepatocytes (chapter 5.7) HEPhu” value (“stability in human hepatocytes” below) in the data set with human hepatocytes is 10 % Qh. The 50% inhibitory concentration (IC50) in data set [1] worked out at 2.23 µM.
The corresponding values for `CC(C)n1cc(-c2cc(O[C@H](C)[C@H]3CNC(=O)C3)c3c(F)n(C)nc3c2)cn1` [Example 2, (R)-4-{(R)-1-[3-Fluoro-6-(1-isopropyl-1H-pyrazol-4-yl)-2-methyl-2H-indazol-4-yloxy]-ethyl}-pyrrolidin-2-one] are less than 4 % Qh and 2.83 µM.
On the same counts, the results for `Cc1c2c(O[C@H](C)[C@H]3CNC(=O)O3)nc(-c3cnn(C(C)(C)C)c3)cc2nn1C` [Example 3, (R)-5-{(R)-1-[6-(1-tert-Butyl-1H-pyrazol-4-yl)-2,3-dimethyl-2H-pyrazolo[4,3-c]pyridin-4-yloxy]-ethyl}-oxazolidin-2-one] are 7 % Qh and 1.34 µM.
On the same counts, the results for `Cc1c2c(O[C@H](C)[C@H]3CNC(=O)C3)nc(-c3c[nH]nc3C(C)(C)C)cc2nn1C` [Example 4, (R)-4-{(R)-1-[6-(3-tert-Butyl-1H-pyrazol-4-yl)-2,3-dimeth-yl-2H-pyrazolo[4,3-c]pyridin-4-yloxy]-ethyl}-pyrrolidin-2-one] are 10 % Qh and 7.41 µM.
With `C[C@@H](Oc1cc(-c2cnn(C3CC3)c2)cc2nn(C)c(F)c12)[C@H]1CNC(=O)C1` [Example 5, (R)-4-{(R)-1-[6-(1-Cycloprop-yl-1H-pyrazol-4-yl)-3-fluoro-2-methyl-2H-indazol-4-yloxy]-ethyl}-pyrrolidin-2-one], in the data set with human hepatocytes, the “stability in human hepatocytes” value is given as less than 4 % Qh. Further, in data set [1], the IC50 was determined as 3.99 µM.
The corresponding values for `C[C@@H](Oc1cc(-c2cnn(CC3CC3)c2)cc2nn(C)c(F)c12)[C@H]1CNC(=O)C1` [Example 6, (R)-4-{(R)-1-[6-(1-Cycloprop-ylmethyl-1H-pyrazol-4-yl)-3-fluoro-2-methyl-2H-indazol-4-yloxy]-ethyl}-pyrrolidin-2-one] are 6 % Qh and 3.73 µM.
On the same counts, the results for `C[C@@H](Oc1cc(-c2cnn(C3CCC(F)(F)C3)c2)cc2nn(C)c(F)c12)[C@H]1CNC(=O)C1` (stereo partly shown) [Example 7] are less than 4 % Qh and 2.44 µM.
As for `Cc1c2c(O[C@H](C)[C@H]3CNC(=O)C3)cc(-c3cnn(CC4CC4)c3)cc2nn1C` [Example 8, (R)-4-{(R)-1-[6-(1-Cyclopropylmethyl-1H-pyrazol-4-yl)-2,3-dimethyl-2H-indazol-4-yloxy]-ethyl}-pyrrolidin-2-one], in the data set on human hepatocytes, the “stability in human hepatocytes” value came out at 5 % Qh. For the same compound, the IC50 in data set [1] amounted to 2.07 µM.
The corresponding values for `Cc1c2c(O[C@H](C)[C@H]3CNC(=O)C3)cc(-c3cnn([C@@H]4CCOC(C)(C)C4)c3)cc2nn1C` [Example 9, (R)-4-((R)-1-{6-[1-((R)-2,2-Dimethyl-tetrahydro-pyran-4-yl)-1H-pyrazol-4-yl]-2,3-dimethyl-2H-indazol-4-yloxy}-ethyl)-pyrrolidin-2-one] are 6 % Qh and 1.84 µM.
Take `Cc1c2c(O[C@H](C)[C@H]3CNC(=O)C3)cc(-c3cnn([C@H]4CO[C@@H]5CCCO[C@@H]54)c3)cc2nn1C` [Example 10, 4-(1-{6-[(R)-(3S,3aR,7aR)-1-(Hexahydro-furo[3,2-b]pyran-3-yl)-1H-pyrazol-4-yl]-2,3-dimethyl-2H-indazol-4-yloxy}-ethyl)-pyrrolidin-2-one]: the “stability in human hepatocytes” value in the data set with human hepatocytes was 9 % Qh. Further, the IC50 in data set [1] came out at 2.02 µM.
On the same counts, the results for `Cc1c2c(O[C@H](C)[C@H]3CNC(=O)C3)cc(-c3cnn(CCF)c3)cc2nn1C` [Example 11, (R)-4-((R)-1-{6-[1-(2-Fluoro-ethyl)-1H-pyrazol-4-yl]-2,3-dimethyl-2H-indazol-4-yloxy}-ethyl)-pyrrolidin-2-one] are 4 % Qh and 3.48 µM.
For `C[C@@H](Oc1cc(-c2cnn(CCC(F)(F)F)c2)cc2nn(C)c(F)c12)[C@H]1CNC(=O)C1` [Example 12, (R)-4-((R)-1-{3-Fluoro-2-methyl-6-[1-(3,3,3-trifluoro-propyl)-1H-pyrazol-4-yl]-2H-indazol-4-yloxy}-ethyl)-pyrrolidin-2-one], in the data set on human hepatocytes, the “stability in human hepatocytes” value is listed as less than 4 % Qh. The IC50 in data set [1] was determined as 5.03 µM.
On the same counts, the results for `Cc1c2c(O[C@H](C)[C@H]3CNC(=O)C3)cc(-c3cnn(C(C)(C)C)c3)cc2nn1C` [Example 13, (R)-4-{(R)-1-[6-(1-tert-Butyl-1H-pyrazol-4-yl)-2,3-dimethyl-2H-indazol-4-yloxy]-ethyl}-pyrrolidin-2-one] are 3 % Qh and 5.22 µM.
Regarding `C[C@@H](Oc1cc(-c2cnn(C3CC(C)(C)OC3(C)C)c2)cc2nn(C)c(F)c12)[C@H]1CNC(=O)C1` (stereo partly drawn) [Example 14, (R)-4-((R)-1-{3-Fluoro-2-methyl-6-[1-(2,2,5,5-tetramethyl-tetrahydro-furan-3-yl)-1H-pyrazol-4-yl]-2H-indazol-4-yloxy}-ethyl)-pyrrolidin-2-one], the “stability in human hepatocytes” value in the data set with human hepatocytes came to 12 % Qh. The IC50 in data set [1] was 4.05 µM.
In the case of `Cc1c2c(O[C@H](C)[C@H]3CNC(=O)C3)cc(-c3cnn(C4CC(C)(C)OC4(C)C)c3)cc2nn1C` (stereo partly drawn) [Example 16, (R)-4-((R)-1-{2,3-Dimethyl-6-[1-(2,2,5,5-tetramethyl-tetrahydro-furan-3-yl)-1H-pyrazol-4-yl]2H-indazol-4-yloxy}-ethyl)-pyrrolidin-2-one], the “stability in human hepatocytes” value in the data set with human hepatocytes is reported as 6 % Qh. For the same compound, the IC50 in data set [1] worked out at 3.49 µM.
On the same counts, the results for `Cc1c2c(O[C@H](C)[C@H]3CNC(=O)C3)cc(-c3cnn(C(C)(C)C#N)c3)cc2nn1C` [Example 17, 2-(4-{2,3-Dimethyl-4-[(R)-1-((R)-5-oxo-pyrrolidin-3-yl)-ethoxy]-2H-indazol-6-yl}-pyrazol-1-yl)-2-methyl-propionitrile] are 4 % Qh and 11.3 µM.
As for `Cc1c2c(O[C@H](C)[C@H]3CNC(=O)C3)cc(-c3cnn(C(C)C)c3)cc2nn1C` [Example 18, (R)-4-{(R)-1-[6-(1-Isopropyl-1H-pyrazol-4-yl)-2,3-dimethyl-2H-indazol-4-yloxy]-ethyl}-pyrrolidin-2-one], the “stability in human hepatocytes” value with human hepatocytes is on record as less than 4 % Qh. For the same compound, the IC50 in data set [1] came to 4.67 µM.
